Reference: paper PMC8080067, “Tight binding of cytochrome b5 to cytochrome P450 17A1 is a critical feature of stimulation of C21 steroid lyase activity and androgen synthesis” (The Journal of Biological Chemistry, 2021)
Substitutions are numbered along the chain they refer to.

What was measured:
P450 17A1 R347H variant = biological target: T1, P450 17A1 R347H variant (Homo sapiens, UniProt P05093, R347H); test: Steady-state kinetics of steroid 17α-hydroxylation and lyase reactions, reconstituted system
T1 sequence (P05093 1-508 R347H): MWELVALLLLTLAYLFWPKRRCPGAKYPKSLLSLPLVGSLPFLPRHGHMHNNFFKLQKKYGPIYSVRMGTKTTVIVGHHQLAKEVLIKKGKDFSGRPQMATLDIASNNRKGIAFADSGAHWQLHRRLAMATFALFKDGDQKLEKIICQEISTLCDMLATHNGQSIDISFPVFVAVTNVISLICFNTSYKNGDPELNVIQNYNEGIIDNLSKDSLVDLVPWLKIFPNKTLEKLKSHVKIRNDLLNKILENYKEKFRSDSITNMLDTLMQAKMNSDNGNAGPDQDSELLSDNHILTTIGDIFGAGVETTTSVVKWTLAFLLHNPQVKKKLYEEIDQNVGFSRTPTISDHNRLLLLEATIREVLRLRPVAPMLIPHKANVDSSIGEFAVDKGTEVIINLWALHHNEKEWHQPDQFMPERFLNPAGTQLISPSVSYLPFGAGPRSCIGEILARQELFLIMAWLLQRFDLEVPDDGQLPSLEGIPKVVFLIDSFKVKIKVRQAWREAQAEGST
Method: (§1) P450 catalytic activity assays to measure steroid hydroxylation and lyase reactions were carried out as described previously ([23], [37], [64]).
(§2) The reactions were initiated by adding an NADPH-regenerating system (final concentrations of 15 mM glucose 6-phosphate, 1.5 mM NADP^+, and 1 IU ml^−1 glucose 6-phosphate dehydrogenase) ([75]) and terminated by quenching and extracting with 2.0 ml CH2Cl2. Aliquots of the organic phases were dried and then dissolved in 100 μl of a CH3CN/H2O (1:1, v/v) mixture. […] The extraction procedure was then repeated, and the (Δ^4) reaction products were analyzed in a Waters Acquity UPLC system using a BEH C18 octadecylsilane column (2.1 mm × 100 mm, 1.7 μm). The reaction products were resolved using a mobile phase composed of solvents A (70% CH3OH, 30% H2O, v/v) and B (CH3CN), at a flow rate of 0.2 ml min^−1. […] Steady-state kinetic parameters were estimated using nonlinear regression of hyperbolic fits in GraphPad Prism software, with equations used for kcat and the specificity constant kcat/Km ([76]): Y = (ksp ∗ X)/(1 + (ksp ∗ X/kcat)) and then deriving Km by division.

P450 17A1 E305G variant [1] = biological target: T2, P450 17A1 E305G variant (Homo sapiens, UniProt P05093, E305G); test: as above
T2 sequence (P05093 1-508 E305G): T1 sequence (P05093 1-508 R347H) with E305G, H347R
Method: as §1, §2

P450 17A1 R358Q variant = biological target: T3, P450 17A1 R358Q variant (Homo sapiens, UniProt P05093, R358Q); test: as above
T3 sequence (P05093 1-508 R358Q): T1 sequence (P05093 1-508 R347H) with H347R, R358Q
Method: as §1, §2

P450 17A1 E305G variant [2] = biological target: T2, P450 17A1 E305G variant; test: Substrate-binding spectral titration (type I, ΔA388-A423)
Method: The purified enzymes were diluted in 100 mM potassium phosphate buffer (pH 7.4) and divided in two 1.0-ml glass cuvettes. Spectra (350–500 nm) were recorded using an OLIS-DW2 spectrophotometer (On-Line Instrument Systems) with subsequent additions of the substrate. Differences in the absorbance between the wavelength maximum and minimum were plotted versus the substrate concentration ([44]). Kd values were calculated using nonlinear regression analysis in GraphPad Prism software (GraphPad) and the quadratic equation: Y=B+A/2E[(Kd+E+X)−(Kd+E+X)^2−4EX], set in Prism as: Y = B + (A/2) ∗ (1/E) ∗ ((Kd + E + X)-sqrt((Kd + E + X)^ˆ2 - (4 ∗ E ∗ X))).
Figure S2. […] Increasing concentrations of substrates were added to the sample and reference cuvettes in each case.

[3] = lyase reaction (conversion to androstenedione or DHEA)

% WT (kcat/Km) (P450 17A1 R347H variant; 17α-hydroxylation) [%]	% WT (kcat/Km) (P450 17A1 E305G variant [1]; 17α-hydroxylation) [%]	% WT (kcat/Km) (P450 17A1 R358Q variant; 17α-hydroxylation) [%]	Kd (P450 17A1 E305G variant [2]) [nM]	SMILES	% WT (kcat/Km) (P450 17A1 R347H variant; [3]) [%]	% WT (kcat/Km) (P450 17A1 E305G variant [1]; [3]) [%]	% WT (kcat/Km) (P450 17A1 R358Q variant; [3]) [%]
4	8	11	170 ± 80	CC(=O)[C@H]1CC[C@H]2[C@@H]3CCC4=CC(=O)CC[C@]4(C)[C@H]3CC[C@]12C [Progesterone]			
19	0.7	12	260 ± 80	CC(=O)C1CCC2C3CC=C4C[C@@H](O)CC[C@]4(C)C3CC[C@]12C (stereo partly drawn) [Pregnenolone]			

SMILES	% WT (kcat/Km) (P450 17A1 R347H variant; 17α-hydroxylation) [%]	% WT (kcat/Km) (P450 17A1 E305G variant [1]; 17α-hydroxylation) [%]	% WT (kcat/Km) (P450 17A1 R358Q variant; 17α-hydroxylation) [%]	Kd (P450 17A1 E305G variant [2]) [nM]	% WT (kcat/Km) (P450 17A1 R347H variant; [3]) [%]	% WT (kcat/Km) (P450 17A1 E305G variant [1]; [3]) [%]	% WT (kcat/Km) (P450 17A1 R358Q variant; [3]) [%]
CC(=O)[C@@]1(O)CCC2C3CC=C4C[C@@H](O)CC[C@]4(C)C3CC[C@@]21C (stereo partly drawn) [17α-OH pregnenolone]				410 ± 180	1.1	0.7	0.6
